Laboratory results reported in US20220401591A1, “SYSTEM AND METHOD FOR QUANTITATIVE MAPPING OF MITOCHONDRIAL COMPLEX 1” (Lantheus Medical Imaging, Inc., priority 2012, published 2022).

How the values were obtained:
[1] = cited from earlier work
MC-I = experiment: ^18F-Flurpiridaz cardiac dynamic PET in infarcted pig, two-tissue compartment model; type: in vivo, domestic swine
Text: In some aspects the model is further developed. The modeling approach is based upon the two-tissue compartment model that describes the uptake and retention of a radiotracer that diffusively exchanges between the blood and tissue, and binds reversibly to a specific target site (FIG. 1A-1B). In this framework the concentration of radiotracer is considered in three distinct states: in the plasma (CP) or one of two tissue states, freely suspended in the tissue fluids (CF) or specifically bound to the target site (CB). Four parameters (K1, k2 , k3, k4) detail the physiological mechanisms underlying uptake and binding. K1 and k2 pertain to the rates of tracer influx (proportional to blood flow) from the vasculature and efflux back out of the tissue, respectively. The ratio K1/k2 is the partition coefficient VND. which reflects non-specific uptake based on properties of the tissue that are not expected to vary regionally. The rate at which tracer binds to the target site is related by k3. The bimolecular nature of associative binding makes k3 a compound parameter, the product of kon (an intrinsic binding rate characteristic to the ligand and target site) and Bmax (the density of the binding sites). For reversibly binding interactions such as between ^18F-Flurpiridaz and MC-I, the return of specifically bound tracer to the free state is portrayed by k4. Here k4 is synonymous with the intrinsic binding dissociation constant koff, which is not expected to differ between regions. In our cardiac application, two additional parameters (fLV, fRV) account for signal contamination from blood pools in the adjacent left and right ventricles. Combinations of individual rate constants yield macroparameters that are robust and informative with regard to radiotracer binding at the target site. These macroparameters include total volume of distribution (VT=[K1/k2][1+k3/k4], the equilibrium ratio of tracer concentration in tissue vs. plasma) and several variants of binding potential (BP, proportional to the target density). […]

[2] = test system: mitochondrial complex I (MC-I); experiment: 100 minute dynamic ^18F-Flurpiridaz PET study of binding in the heart, 2-compartment reversible model fit; type: in vivo, cynomolgus monkey; conditions: myocardium ROI, 100 min data, 1.25 mCi
Text: Measurement of myocardial blood flow and binding potential with ^18F-Flurpiridaz can be approached with standard methods that are well understood and available in our laboratory. We use a four parameter (K1, k2, k3, k4), two tissue compartment model (FIGS. 1A-1B) to describe Flurpiridaz kinetics. In this model the tracer can be in one of two states, either free, as the injected molecule, or bound to a receptor. In the case of ^18F-Flurpiridaz, previous studies have shown that it binds reversibly to mitochondrial complex I and this is supported by the data presented herein (see Example 3). Referring to FIGS. 1A-1B, the product of plasma concentration (Cp) and transport rate K1 is the force driving the tracer from capillary plasma to the free space (i.e., both free and nonspecifically bound). Conceptually, CF represents free flurpiridaz and CB represents Flurpiridaz binding to the MC-I complex. Corrections (not shown) are included for spillover of activity.
Symbolically, K1 is the plasma-to-tissue transport rate, FE, the product of flow and the unidirectional capillary extraction fraction, E. k2 is a rate constant summarizing the egress from tissue to plasma. The rate constants k3 (kon*B′max) and k4 (koff) provide a summary description of binding and release of tracer. This model, with nonlinear least squares, was used to fit 100 minutes of data obtained in a study of binding in the heart of a cynomolgus monkey (see Example 3). It is anticipated that a similar approach will be adequate for validation studies in pigs. Graphical methods can also be studied and applied for determination of BP, as they may be more appropriate for quantitative parametric images and future translation to human studies. For example, consider: Logan J, Fowler J S, Volkow N D, et al. Graphical analysis of reversible radioligand binding from time-activity measurements applied to [N-11C-methyl]-(-)-cocaine PET studies in human subjects. J Cereb Blood Flow Metab. Sep 1990; 10(5):740-747 and Zhou Y, Ye W, Brasic J R, Crabb A H, Hilton J, Wong D F. A consistent and efficient graphical analysis method to improve the quantification of reversible tracer binding in radioligand receptor dynamic PET studies. Neuroimage. Feb 1 2009; 44(3):661-670. Software programs for both approaches have been developed. Realistic Monte Carlo simulation and sensitivity analysis can be used to determine the precision obtained with a given dose of ^18F-Flurpiridaz and the experimental duration of the study. The structure of ^18F-Flurpiridaz is detailed in FIG. 1C.
Based on preliminary data from a primate study using ^18F-Flurpiridaz, the parameter precision for estimating the MBF and BPP was evaluated. […]

[3] = 17 segments fitted independently

Compound: CC(C)(C)n1ncc(OCc2ccc(COCCF)cc2)c(Cl)c1=O [^18F-Flurpiridaz]
- unidirectional extraction fraction ([1]; at all physiological flow values): ~1
- brain blood barrier passage ([1]; in vivo): crosses the brain blood barrier
- reduction of K1 in damaged compared to healthy tissue (MC-I; [3]): about 50%
- reduction of VT in damaged compared to healthy tissue (MC-I; [3]): about 75%
- binding reduction (BP) in damaged tissues (MC-I; grand fit with common VND across regions): up to 90%
- k2 (egress from tissue to plasma) [2]: 0.075 (SD=4.7%)
- k3/k4 [2]: 1.65 (SD=4.0%)
- k4 (koff, release) [2]: 0.016 (SD=10.4%)
- K1 (plasma-to-tissue transport rate) ([2]; SD from asymptotic covariance matrix): 0.51 (SD=1.5%)
